Assay results as given in US9791443B2, “Method for differentially quantifying naturally processed HLA-restricted peptides for cancer, autoimmune and infectious diseases immunotherapy development” (IMMATICS BIOTECHNOLOGIES GMBH, priority 2010, dated 2017).

Test system: CD8+ T cells
Assay: In vitro immunogenicity: priming of CD8+ T cells with pMHC/anti-CD28 coated beads (aAPC), A*2402 multimer staining
Type: cell-based, human
Conditions: HLA-A*24 healthy donors, three stimulation cycles; for Positive donors/donors tested [%]: positive among evaluable donors, at least two donors evaluable per peptide; for Positive wells/wells tested [%]: positive among evaluable wells, at least 24 wells evaluable per peptide
Description: To get information regarding the immunogenicity of the TUMAPs of the present invention, we performed investigations using a well established in vitro stimulation platform already described by (Walter, S, Herrgen, L, Schoor, O, Jung, G, Wernet, D, Buhring, H J, Rammensee, H G, and Stevanovic, S; 2003, Cutting edge: predetermined avidity of human CD8 T cells expanded on calibrated MHC/anti-CD28-coated microspheres, J. Immunol., 171, 4974-4978).
In order to perform in vitro stimulations by artificial antigen presenting cells (aAPC) loaded with peptide-MHC complex (pMHC) and anti-CD28 antibody, we first isolated CD8 T cells from fresh HLA-A*24 leukapheresis products of healthy donors obtained from the Blood Bank Tuebingen.
CD8 T cells were either directly enriched from the leukapheresis product or PBMCs (peripheral blood mononuclear cells) were isolated first by using standard gradient separation medium (PAA, Cölbe, Germany). Isolated CD8 lymphocytes or PBMCs were incubated until use in T-cell medium (TCM) consisting of RPMI-Glutamax (Invitrogen, Karlsruhe, Germany) supplemented with 10% heat inactivated human AB serum (PAN-Biotech, Aidenbach, Germany), 100 U/ml Penicillin/100 μg/ml Streptomycin (Cambrex, Cologne, Germany), 1 mM sodium pyruvate (CC Pro, Oberdorla, Germany), 20 μg/ml Gentamycin (Cambrex). 2.5 ng/ml IL-7 (PromoCell, Heidelberg, Germany) and 10 U/ml IL-2 (Novartis Pharma, Nürnberg, Germany) were also added to the TCM at this step. Isolation of CD8+ lymphocytes was performed by positive selection using CD8 MicroBeads (Miltenyi Biotec, Bergisch-Gladbach, Germany).
Generation of pMHC/anti-CD28 coated beads, T-cell stimulations and readout was performed as described before (Walter et al. 4974-78) with minor modifications. Briefly, biotinylated peptide-loaded recombinant HLA-A*2402 molecules lacking the transmembrane domain and biotinylated at the carboxy terminus of the heavy chain were produced. The purified costimulatory mouse IgG2a anti human CD28 Ab 9.3 (Jung, Ledbetter, and Muller-Eberhard 4611-15) was chemically biotinylated using Sulfo-N-hydroxysuccinimidobiotin as recommended by the manufacturer (Perbio, Bonn, Germany).
800.000 beads/200 μl were coated in 96-well plates in the presence of 600 ng biotin anti-CD28 plus 200 ng relevant biotin-pMHC (high density beads). Stimulations were initiated in 96-well plates by co-incubating 1×10^6 CD8+ T cells with 2×10^5 washed coated beads in 200 μl TCM supplemented with 5 ng/ml IL-12 (PromoCell) for 3-4 days at 37° C. Half of the medium was then exchanged by fresh TCM supplemented with 80 U/ml IL-2 and incubating was continued for 3-4 days at 37° C. This stimulation cycle was performed for a total of three times. Finally, multimeric analyses were performed by staining the cells with Live/dead-Aqua dye (Invitrogen, Karlsruhe, Germany), CD8-FITC antibody clone SK1 (BD, Heidelberg, Germany) and PE- or APC-coupled A*2402 MHC multimers. For analysis, a BD LSRII SORP cytometer equipped with appropriate lasers and filters was used. Peptide specific cells were calculated as percentage of total CD8+ cells. Evaluation of multimeric analysis was done using the FlowJo software (Tree Star, Oregon, USA). In vitro priming of specific multimer+ CD8+ lymphocytes was detected by appropriate gating and by comparing to negative control stimulations.

Sequence: AYAIIKEEL (listed as Homo sapiens) [ATAD2-001]
- Positive donors/donors tested [%]: 50%
- Positive wells/wells tested [%]: 4%

Sequence: AYLVYTDRL (listed as Homo sapiens) [PPAP2C-001]
- Positive donors/donors tested [%]: 100%
- Positive wells/wells tested [%]: 54%

Sequence: FYISPVNKL (listed as Homo sapiens) [AVL9-001]
- Positive donors/donors tested [%]: 100%
- Positive wells/wells tested [%]: 50%

Sequence: HYKPTPLYF (listed as Homo sapiens) [SMC4-001]
- Positive donors/donors tested [%]: 75%
- Positive wells/wells tested [%]: 9%

Sequence: IYNGKLFDLL (listed as Homo sapiens) [KIF2C-001]
- Positive donors/donors tested [%]: 13%
- Positive wells/wells tested [%]: 2%

Sequence: KYNDTFWKEF (listed as Homo sapiens) [HSP90B1-001]
- Positive donors/donors tested [%]: 50%
- Positive wells/wells tested [%]: 4%

Sequence: LYQILQGIVF (listed as Homo sapiens) [CDC2-001]
- Positive donors/donors tested [%]: 88%
- Positive wells/wells tested [%]: 28%

Sequence: NYEETFPHI (listed as Homo sapiens) [MUC6-001]
- Positive donors/donors tested [%]: 50%
- Positive wells/wells tested [%]: 21%

Sequence: NYLLYVSNF [MMP11-001]
- Positive donors/donors tested [%]: 33%
- Positive wells/wells tested [%]: 11%

Sequence: NYLLYVSNF [MST1R-001] (listed as Homo sapiens)
- Positive donors/donors tested [%]: 50%
- Positive wells/wells tested [%]: 14%

Sequence: NYLPFIMEL (listed as Homo sapiens) [UCHL5-001]
- Positive donors/donors tested [%]: 75%
- Positive wells/wells tested [%]: 14%

Sequence: QYASRFVQL (listed as Homo sapiens) [PLK4-001]
- Positive donors/donors tested [%]: 60%
- Positive wells/wells tested [%]: 5%

Sequence: RFLSGIINF (listed as Homo sapiens) [NUF2-002]
- Positive donors/donors tested [%]: 50%
- Positive wells/wells tested [%]: 4%

Sequence: RYLWATVTI (listed as Homo sapiens) [ASPM-001]
- Positive donors/donors tested [%]: 17%
- Positive wells/wells tested [%]: 3%

Sequence: SYIDVLPEF (listed as Homo sapiens) [MET-006]
- Positive donors/donors tested [%]: 63%
- Positive wells/wells tested [%]: 22%

Sequence: SYNPLWLRI (listed as Homo sapiens) [ASPM-002]
- Positive donors/donors tested [%]: 63%
- Positive wells/wells tested [%]: 31%

Sequence: TYGNLLDYL (listed as Homo sapiens) [ABL1-001]
- Positive donors/donors tested [%]: 50%
- Positive wells/wells tested [%]: 13%

Sequence: VFDTAIAHLF (listed as Homo sapiens) [SIAH2-001]
- Positive donors/donors tested [%]: 50%
- Positive wells/wells tested [%]: 4%

Sequence: VFIFKGNQF (listed as Homo sapiens) [MMP3-001]
- Positive donors/donors tested [%]: 13%
- Positive wells/wells tested [%]: 1%

Sequence: VWSDVTPLTF [PROM1-001]
- Positive donors/donors tested [%]: 83%
- Positive wells/wells tested [%]: 26%

Sequence: VYGIRLEHF (listed as Homo sapiens) [NUF2-001]
- Positive donors/donors tested [%]: 100%
- Positive wells/wells tested [%]: 25%

Sequence: VYIEKNDKL (listed as Homo sapiens) [ERBB3-001]
- Positive donors/donors tested [%]: 83%
- Positive wells/wells tested [%]: 15%

Sequence: VYKVVGNLL (listed as Homo sapiens) [IQGAP3-001]
- Positive donors/donors tested [%]: 100%
- Positive wells/wells tested [%]: 24%

Sequence: VYTTSYQQI (listed as Homo sapiens) [NFYB-001]
- Positive donors/donors tested [%]: 50%
- Positive wells/wells tested [%]: 7%

Sequence: YYNAAGFNKL (listed as Homo sapiens) [UQCRB-001]
- Positive donors/donors tested [%]: 100%
- Positive wells/wells tested [%]: 38%
